Assay results from patent US8865759B2, “Use of dithiine-tetracarboximides for controlling phytopathogenic fungi” (priority 2008, dated 2014).

Assay: logP determination by HPLC on reversed-phase column (C 18), EEC Directive 79/831 Annex V.A8
Format: physicochemical
Details: reversed-phase C 18, 43° C., acidic range pH 2.7, 0.1% aqueous formic acid/acetonitrile

Compound | log P
COCCn1c(=O)c2sc3c(=O)n(CCOC)c(=O)c3sc2c1=O [Compound 12, 2,6-Bis(2-methoxyethyl)-1H,5H-[1,4]dithiino[2,3-c:5,6-c]dipyrrole-1,3,5,7(2H,6H)-tetrone] | log P = 2.55
CC(C(=O)O)n1c(=O)c2sc3c(=O)n(C(C)C(=O)O)c(=O)c3sc2c1=O (centres unmarked) [Compound 24, 2,2′-(1,3,5,7-Tetraoxo-1,3,5,7-tetrahydro-2H,6H-[1,4]dithiino[2,3-c:5,6-c]dipyrrole-2,6-diyl)dipropanoic acid] | log P = 1.76
